# In patent US5892029A, “3-hydroxy-2(1H)-pyridinone chelating agents” (priority 1997, dated 1999):
# “Also recorded” adds a separate entry of the source. Where two headings read alike, the source gives them in different places.
# Experiments:
# [1] = format: in vivo, mice; conditions: for toxicity / mortality (in words): mouse, in vivo; for body weight / kidney weight / plasma urea N: mean ± SD
# Protocol: The test of acute toxicity of these novel ligands was carried out as follows. […] The ligand was dissolved in 0.5 to 1.0 ml of saline at pH 7 to 8. After a period of observation, the mice were killed, selected tissues were removed and fixed for histopathological examination,and unusual findings at autopsy were recorded.
# [2] = Promoting excretion of 238Pu(IV) in mice by injected ligands (Table 3); format: in vivo; conditions: 30 μmol/kg i.p.
# Text: (§1) Animal studies were completed using methods detailed in Radiation Protection Dosimetry, 1994, 53, 305: P. W. Durbin et al., "In Vivo Chelation of Am(III), Pu(IV), Np(V) and U(VI) in Mice by TREN-(Me-3,2-HOPO)"; Radiation Protection Dosimetry, 1989, 17, 351: P. W. Durbin et al., "Removal of ^238 Pu(IV) from Mice by Polycatechoylate, -Hydroxamate or -Hydroxypyridinonate Ligands"; Radiation Research, 1984, 99, 85: P. W. Durbin et al., "Specific Sequestering Agents for the Actinides . . . "; Radiation Research, 1984, 99, 106: P. W. Durbin et al., "Removal of Pu and Am from Beagles and Mice . . . "; Radiation Research, 1980, 81, 170: R. D. Lloyd et al., and P. W. Durbin et al., "Specific Sequestering Agents for the Actinides . . . ". The foregoing articles are hereby incorporated by reference.
# (§2) Radionuclides used in the animal studies came from a variety of sources. The ^238 Pu(IV) citrate and ^241 Am(III) citrate solutions were prepared for animal injection by 8- to 10-fold dilution with 0.14M NaC1 (pH 4) of concentrated stock solutions (0.08M sodium citrate buffer) that had been held in frozen storage at Lawrence Berkeley Laboratory (hereinafter LBL) for several years. [The ^238 Pu(IV) was originally obtained from D. R. Atherton at the University of Utah Radiobiology Laboratory, Salt Lake City. The ^241 Am(III) solution had been obtained many years earlier from the LBL Actinide Chemistry group.]
# The novel chelating agents of the present invention were tested for their effectiveness in promoting excretion of ^238 Pu(IV) in mice by injected ligands as follows. Mice, in groups of five, each received an intravenous injection of 1850 Bq^238 Pu(IV) in 0.2 mL of citrate buffer. One hour later, 30 μmol/kg of ligand was injected intraperitoneally in 0.5 mL of saline. The mice were killed 24 hours after the Pu injection, frozen, and dissected after partial thawing. The ^238 Pu in skeleton, soft tissues, and separated excreta was determined by counting the ^234 U L x-rays. […]
# [3] = Gd3+ complex stability in aqueous solution; format: binding
# [4] = Fe(III); background; cited from earlier work
# [5] = Promoting excretion of 241Am(III) in mice by injected ligands (Table 5); format: in vivo; conditions: 30 μmol/kg i.p. at 3 to 5 min after actinide i.v.
# Text: as §1, §2
# (§3) One of the novel chelating agents of the present invention, TREN-Me-3,2-HOPO, was also tested for effectiveness in promoting excretion of ^241 AM(III), ^237 Np(V), and ^232 U(VI) by injection into mice, as follows: Mice, in groups of five, each received an intravenous injection of (a) 1100 Bq of ^241 Am(III) in 0.2 mL of citrate buffer, (b) 150 Bq of ^232 UO2 Cl2 plus 3.6 mg of ^235 UO2 Cl2 in 0.2 mL of saline, or (c) 200 Bq of ^237 NpO2 Cl ([…] of ^237 NPO2 Cl) in 0.2 mL of saline. Three to five minutes later, 30 μmol/kg of TREN-Me-3,2-HOPO was injected intraperitoneally in 0.5 mL of saline. The mice were killed 24 hours after the actinide injection, frozen, and dissected after partial thawing. The skeleton, soft tissues, and separated excreta were radioanalyzed by counting the ^241 Am gamma rays, or the alpha particles emitted by ^237 Np or ^232 U (and its ingrowing daughters). Removal of those actinides from mice by injected TREN-Me-3,2-HOPO is summarized in Table 5, which also includes data for mice similarly treated with CaNa3 -DTPA and for actinide-injected controls. […] The structure of Am(III)-TREN-Me-3,2-HOPO is considered to resemble that of the Gd(III) complexes (see Example 20). Complexation of the fraction of Np(V) that is reduced in vivo to Np(IV) is considered to resemble that of Pu(IV). Complexation of U(VI) is considered to take place through binding to UO2^2+.
# (§4) ^a Ligands (30 μmol/kg) i.p. at 3 to 5 min after actinide i.v.;
# [6] = Promoting excretion of U(VI) in mice by injected ligands (Table 5); format: in vivo; conditions: 30 μmol/kg i.p. at 3 to 5 min after actinide i.v.
# Text: as §1
# The ^232 U was obtained from the Isotope Products Laboratory, Burbank, Calif., and ^234,235 U was obtained as U metal from long-held LBL storage. The two U sources were combined and dissolved in 6N HNO3, dried, and redissolved in 0.1N HCl. The daughter radioactivities were removed by elution from a Dowex-50X4 column (22 cm length, 0.7 cm diameter, 1.5 mL min^-1 flow rate) with 3.2N HCl. The U fractions (previously identified by a trial run with ^234,235 U alone) were combined, dried, and redissolved in 0.14M NaCl at pH 5.5.
# as §3, §4
# [7] = Promoting excretion of 237Np(V) in mice by injected ligands (Table 5); format: in vivo; conditions: 30 μmol/kg i.p. at 3 to 5 min after actinide i.v.
# Text: as §1
# The ^237 Np(V) was obtained from J. Bucher of the LBL Actinide Chemistry group as NpO2 Cl in 0.1M HCl. It was diluted to the desired radioactivity concentration in 0.14M NaCl and the pH was adjusted to about 4.5 with NaOH just before use.
# as §3, §4
# [8] = 30 μmol/kg i.p. at 1 h; reported previously (footnote e); cited from earlier work
# [9] = protocol I: 100 μmol/kg × 10 daily i.p., 11 d
# [10] = protocol I: 100 μmol/kg × 10 daily i.p., 11 d, of 5 mice
# [11] = protocol I: 100 μmol/kg × 10 daily i.p., 21 d
# [12] = protocol I: 100 μmol/kg × 10 daily i.p., 21 d, of 5 mice
# [13] = protocol II: 500 μmol/kg × 2 in 8 h i.p., 11 d
# [14] = protocol II: 500 μmol/kg × 2 in 8 h i.p., 11 d, of 5 (5-LI) or 10 (5-LI-O) mice
compound,measurement,setting,value
"Cn1ccc(C(=O)NCCCCCNC(=O)c2ccn(C)c(=O)c2O)c(O)c1=O [5-LI-Me-3,2-HOPO, 1,5-bis[(3-hydroxy-1-methyl-2-oxo-1,2-dihydro-pyridin-4-yl)carboxamido]pentane]",toxicity / mortality (in words),[1],low toxicity
same,body weight,[1]; [9],102 ± 5 percent control
same,kidney weight,[1]; [9],109 ± 14 percent control
same,plasma urea N,[1]; [9],89 ± 1 percent control
same,no. of survivors,[1]; [10],5
same,body weight,[1]; [11],102 ± 5 percent control
same,kidney weight,[1]; [11],100 ± 4 percent control
same,plasma urea N,[1]; [11],101 ± 2 percent control
same,no. of survivors,[1]; [12],5
same,body weight,[1]; [13],99 ± 3 percent control
same,kidney weight,[1]; [13],109 ± 9 percent control
same,plasma urea N,[1]; [13],98 ± 18 percent control
same,no. of survivors,[1]; [14],5
same,"effectiveness of Pu removal, injected (in words)",[2],as effective or more effective than the hexadentate and octadentate chelating agents
"Gadolinium (III) Ion Complex with N,N,N,-Tris[(3-hydroxy-1-methyl-2-oxo-1,2-dihydropyridin-4-yl)carboxamidoethyl]-amine [Gd(III)-TREN-3,2-HOPO complex]",pM value for Gd^3+,[3],19
same,formation constant log β110,[3]; aqueous solution,20.3
same,stability of the complex (in words),[3]; aqueous solution,very stable in aqueous solution; also recorded: substantially more stable than any of the Gd^3+ MRI agents in current clinical use
O=C(N[C@H]1COC(=O)[C@@H](NC(=O)c2cccc(O)c2O)COC(=O)[C@@H](NC(=O)c2cccc(O)c2O)COC1=O)c1cccc(O)c1O [enterobactin],formation constant Kf,[4],≈ 10^49
same,pM,[4],35.5
"O=C(O)CN(CCN(CC(=O)O)CC(=O)O)CCN(CC(=O)O)CC(=O)O [CaNa3 -DTPA, reference compound]",Am(III) in liver at 24 h,[5],13 ± 1.5% of injected actinide
same,Am(III) in skeleton at 24 h,[5],8.5 ± 0.9% of injected actinide
same,Am(III) in soft tissue at 24 h,[5],1.9 ± 0.3% of injected actinide
same,Am(III) in whole body at 24 h,[5],24 ± 1.3% of injected actinide
same,Am(III) excreta: feces and GI contents,[5]; pooled,8.0% of injected actinide
same,Am(III) excreta: urine 0-24 h,[5]; pooled,68% of injected actinide
same,Am(III) in kidneys at 24 h,[5]; pooled,0.4% of injected actinide
same,U(VI) in kidneys at 24 h,[6],17 ± 2.8% of injected actinide
same,U(VI) in liver at 24 h,[6],1.0% of injected actinide
same,U(VI) in skeleton at 24 h,[6],19 ± 3.0% of injected actinide
same,U(VI) in whole body at 24 h,[6],38 ± 0.7% of injected actinide
same,U(VI) combined excreta,[6]; combined excreta (footnote f),62% of injected actinide
same,Np(V) in liver at 24 h,[7],14 ± 5.7% of injected actinide
same,Np(V) in skeleton at 24 h,[7],40 ± 4.4% of injected actinide
same,Np(V) in soft tissue at 24 h,[7],3.5 ± 0.9% of injected actinide
same,Np(V) in whole body at 24 h,[7],58 ± 8.0% of injected actinide
same,Np(V) excreta: feces and GI contents,[7]; pooled,1.5% of injected actinide
same,Np(V) excreta: urine 0-24 h,[7]; pooled,40% of injected actinide
same,Np(V) in kidneys at 24 h,[7]; pooled,1.3% of injected actinide
same,238Pu excreta: feces and GI contents,[8],5.1% of injected ^238 Pu
same,238Pu excreta: urine 0-24 h,[8],61% of injected ^238 Pu
same,238Pu in kidneys at 24 h,[8],1.1% of injected ^238 Pu
same,238Pu in liver at 24 h,[8],17 ± 4.0% of injected ^238 Pu
same,238Pu in skeleton at 24 h,[8],12 ± 2.3% of injected ^238 Pu
same,238Pu in soft tissue at 24 h,[8],3.5 ± 1.6% of injected ^238 Pu
same,238Pu in whole body at 24 h,[8],33 ± 6.6% of injected ^238 Pu
"Cn1ccc(C(=O)NCCOCCNC(=O)c2ccn(C)c(=O)c2O)c(O)c1=O [5-LI-O-Me-3,2-HOPO, 1,5-bis[(3-hydroxy-1-methyl-2-oxo-1,2-dihydro-pyridin-4-yl)carboxamido]-3-oxypentane]",toxicity / mortality (in words),[1],low toxicity
same,body weight,[1]; [9],103 ± 5 percent control
same,kidney weight,[1]; [9],100 ± 19 percent control
same,plasma urea N,[1]; [9],83 ± 5 percent control
same,no. of survivors,[1]; [10],5
same,body weight,[1]; [11],101 ± 5 percent control
same,kidney weight,[1]; [11],111 ± 5 percent control
same,plasma urea N,[1]; [11],86 ± 18 percent control
same,no. of survivors,[1]; [12],5
same,body weight,[1]; [13],100 ± 2 percent control
same,kidney weight,[1]; [13],108 ± 10 percent control
same,plasma urea N,[1]; [13],77 ± 10 percent control
same,no. of survivors,[1]; [14],110
same,"effectiveness of Pu removal, injected (in words)",[2],as effective or more effective than the hexadentate and octadentate chelating agents
"Cn1ccc(C(=O)NCCCCNC(=O)c2ccn(C)c(=O)c2O)c(O)c1=O [4-LI-Me-3,2-HOPO, 1,4-bis[(3-hydroxy-1-methyl-2-oxo-1,2-dihydro-pyridin-4-yl)carboxamido]butane]",body weight,"[1]; protocol IB: 100 μmol/kg, 5 d",85 ± 8 percent control
same,kidney weight,"[1]; protocol IB: 100 μmol/kg, 5 d",190 ± 63 percent control
same,plasma urea N,"[1]; protocol IB: 100 μmol/kg, 5 d",> 2000 percent control
same,no. of survivors,"[1]; protocol IB: 100 μmol/kg, 5 d, of 3 mice",0
same,"effectiveness of Pu removal, injected (in words)",[2],as effective or more effective than the hexadentate and octadentate chelating agents
